Experimental data published in patent US5635391A, “Isolated DNA encoding a nitrilase polypeptide, hosts containing, and expression thereof optionally assisted by a E. coli GroE chaperone polypeptide” (priority 1992, dated 1997).

How the values were obtained:
E. coli (pXL2087) [1] = assay: Activity of immobilized and free E. coli (pXL2087) cells on adiponitrile; type: cell-based; conditions: 25° C., pH 7, 50 mM adiponitrile
Description: The cells were fixed according to the following protocol:
The gram of cells was suspended in the polyazetidine solution. After homogenization, the resin was poured into the cell suspension. The whole was stirred with a spatula and then left to dry for 18 h, open to the air, under a hood. 4 ml or 1.3 g of biocatalyst were thus collected. The activities of the immobilized and free cells were determined at 25° C. and pH 7 on a 50 mM solution of adiponitrile. They are respectively 30 and 110 μmol of […]/h/mg of cells DW, from which a fixing yield of 26% is deduced.

purified nitrilase [2] = target: T1, purified nitrilase (Comamonas testosteroni, UniProt Q59329); assay: Relative activity of the purified nitrilase on various nitriles; type: biochemical, Comamonas testosteroni sp.; conditions: acetate buffer 10 mM, pH 4; substrate 10 mM; 25° C.
T1 construct: about 280 kDa oligomer of about 38 kDa subunits
T1 sequence (Q59329 entry or part of it): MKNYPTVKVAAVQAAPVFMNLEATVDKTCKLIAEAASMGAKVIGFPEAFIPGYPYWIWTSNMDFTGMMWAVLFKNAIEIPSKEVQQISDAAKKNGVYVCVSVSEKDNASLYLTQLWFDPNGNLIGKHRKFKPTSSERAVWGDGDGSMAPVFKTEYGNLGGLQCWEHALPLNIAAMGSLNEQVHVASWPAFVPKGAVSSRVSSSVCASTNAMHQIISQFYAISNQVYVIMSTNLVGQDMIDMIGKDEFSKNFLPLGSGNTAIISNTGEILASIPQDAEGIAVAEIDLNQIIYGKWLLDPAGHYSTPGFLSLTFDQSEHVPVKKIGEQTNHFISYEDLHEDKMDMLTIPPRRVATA
Description: The activities of the purified nitrilase were measured on adiponitrile, 5-cyanovaleramide, 5-cyanovaleric acid, benzonitrile, propionitrile and acrylonitrile.
COMMON CONDITIONS: acetate buffer=10 mM, pH 4; substrate=10 mM; volume=3 ml; T=25° C.; reaction time=1 or 3 h; proteins: from 5 to 30 μg/ml.

[3] = tested on: Comamonas testosteroni sp.; assay: Enzymatic activity of Comamonas testosteroni sp. cells on adiponitrile; type: cell-based; conditions: 52.3 mM adiponitrile, pH 7, 25° C.; 1 U = 1 μmol of product formed per minute
Description: A cellular residue containing 13.1 mg of dry weight of cells was suspended in 2 ml of a 52.3 mM solution of adiponitrile in 50 mM potassium phosphate buffer, pH 7. The reaction was carried out at 25° C., with shaking, and the kinetics were followed by sampling. 5-Cyanovaleramide, adipamide, 5-cyanovalerate, adipamate and adipate were determined on each sample by high performance liquid chromatography (HPLC). […] The respective rates of formation of cyanovalerate and adipate were greater than 0.45 and equal to 0.15 U/mg of dry weight of cells (1 U is equal to 1 μmol of product formed per minute).

E. coli (pXL2087) [4] = assay: Batch hydrolysis of adiponitrile with E. coli (pXL2087) in suspension; type: cell-based; conditions: pH 7, 25° C., cells 21 g/l
Description: 120 μl or 1068 μmol of adiponitrile were added at 25° C. and with magnetic stirring, at the reaction times 0, 1, 2, 3, 5, 6 and 7 h, to an initial volume of 5 ml of 50 mM phosphate buffer, pH 7, containing the strain E. coli (pXL2087) at an initial concentration of 21 g/l. The reaction was monitored analytically by taking 100 μl samples of the reaction volume every hour.
The mean activities calculated over 30 min after addition of the adiponitrile are collated in Table 6 below.

E. coli TG1 pXL2035 = assay: Nitrilase activity of control strain E. coli TG1 pXL2035; type: cell-based; conditions: no IPTG; whole cells; DW 0.06 g/l; 1 ml; pH 7.0; substrate 50 mM
Description: (§1) The activities of these strains, induced or non-induced, are measured on adiponitrile and 5-cyanovalerate at different pH values and are compared with the negative control strains: E. coli TG1, E. coli TG1 (pXL2035) and Pseudomonas putida G2081.
(§2) The cultures are carried out under the conditions described in Table 4. During the exponential growth phase, one of the two cultures of the recombinant strain is induced with 1 mM IPTG; after 2 h at 37° C., this culture is treated.
(§3) The conditions of the specific activity measurements and the results are collated in Table 5.
(§4) COMMON CONDITIONS: [substrate]=50 mM; T=25° C.; buffer 50 mM; kinetics over 90 min for 1 to 3 and over 120 min for 4 to 8.
(§5) ABBREVIATIONS: W=whole cells; S=sonicated cells; Ua=μmols of cyanovalerate produced/h; Ub=μmols of adipate produced/h; AdN=adiponitrile; CVA=5-cyanovalerate. DW=dry weight.

E. coli TG1 pXL2087 = assay: Nitrilase activity of recombinant strain E. coli TG1 pXL2087; type: cell-based; conditions: substrate 50 mM; for Activity Ua: DW 0.3 g/l, pH 4.2
Description: as §1, §2, §3, §4, §5

[5] = tested on: E. coli (pXL2087) immobilized on resin; assay: Hydrolysis of adiponitrile in a fixed bed reactor with immobilized E. coli (pXL2087); type: cell-based; conditions: 28° C., adiponitrile 50 mM, pH 7, flow rate 3.7 ml/h
Description: The half-life is determined in a continuously fed fixed bed reactor under the conditions indicated below:
T 28° C.; catalyst 0.5 g or 2 ml or 85 mg of cells (dry weight); [adiponitrile] 50 mM; phosphate buffer 50 mM, pH 7; flow rate 3.7±0.1 ml/h; column: diameter 1 cm, height 3 cm.
The initial activity of the cells was 1.5 μmol of adipate/h/mg of cells (dry weight). 66% of the initial activity is preserved after 32 days or 770 h.

E. coli TG1 = assay: Nitrilase activity of control strain E. coli TG1; type: cell-based; conditions: no IPTG, whole cells, DW 15.5 g/l, 1 ml, substrate 50 mM, 25° C.
Description: as §1, §2, §3, §4, §5

P. putida G2081 pDSK519 = assay: Nitrilase activity of control strain P. putida G2081 pDSK519; type: cell-based, Pseudomonas putida; conditions: no IPTG; whole cells; DW 0.3 g/l; 1 ml; pH 7.0; substrate 50 mM
Description: as §1, §2, §3, §4, §5

purified nitrilase [6] = target: T1, purified nitrilase; assay: Activity of the purified nitrilase as a function of the pH; type: biochemical, Comamonas testosteroni sp.; conditions: substrate 10 mM, 25° C., U = μmol of cyanovalerate formed/h
Description: The purified nitrilase was tested at different pH values on two substrates, adiponitrile and 5-cyanovalerate, under the conditions indicated in Table 2 below.
COMMON CONDITIONS: [substrate]=10 mM; buffer 10 mM; T 25° C.; [nitrilase]=12 μg/ml for cyanovalerate and 3 μg/ml for adiponitrile (fraction, step 6); U (adiponitrile)=μmol of cyanovalerate formed/h, U (cyanovalerate)=μmol of adipate formed/h.

With N#CCCCCC#N [Adiponitrile, adiponitrile] the “activity of the free cells” value (E. coli (pXL2087) [1]) was 110 μmol of 2-cyanovalerate/h/mg of cells DW, the “activity of the immobilized cells” value (E. coli (pXL2087) [1]) was 30 μmol of 2-cyanovalerate/h/mg of cells DW and the “RELATIVE ACTIVITY” value (purified nitrilase [2]) was 100%. The “rate of formation of adipate” value [3] was 0.15 U/mg of dry weight of cells, the “rate of formation of cyanovalerate” value [3] was “greater than 0.45 U/mg of dry weight of cells” and the “SPECIFIC ACTIVITY (mean over 30 min after addition of adiponitrile)” value (E. coli (pXL2087) [4]; reaction time 0.5 h) was 16 μmol of adipate/h x mg of dry cells. The “SPECIFIC ACTIVITY (mean over 30 min after addition of adiponitrile)” value (E. coli (pXL2087) [4]; reaction time 2.5 h) was 15 μmol of adipate/h x mg of dry cells, the “SPECIFIC ACTIVITY (mean over 30 min after addition of adiponitrile)” value (E. coli (pXL2087) [4]; reaction time 5.5 h) was 11 μmol of adipate/h x mg of dry cells and the “SPECIFIC ACTIVITY (mean over 30 min after addition of adiponitrile)” value (E. coli (pXL2087) [4]; reaction time 6.5 h) was 11 μmol of adipate/h x mg of dry cells. The “SPECIFIC ACTIVITY (mean over 30 min after addition of adiponitrile)” value (E. coli (pXL2087) [4]; reaction time 7.7 h) was 15 μmol of adipate/h x mg of dry cells, the “Activity Ua” value (E. coli TG1 pXL2035) was 0 μmols of cyanovalerate produce and the “Activity Ub” value (E. coli TG1 pXL2035) was 0 μmols of adipate produced/h. The “Activity Ub” value (E. coli TG1 pXL2087; +IPTG, sonicated cells, DW 1.4 g/l, 2 ml, pH 6.2) was 17 μmols of adipate produced/h, the “Activity Ub” value (E. coli TG1 pXL2087; +IPTG, sonicated cells, DW 1.4 g/l, 2 ml, pH 7.0) was 10 μmols of adipate produced/h and the “Activity Ua” value (E. coli TG1 pXL2087; +IPTG, whole cells, 1 ml) was 159 μmols of cyanovalerate produce. For the same compound, the “Activity Ub” value (E. coli TG1 pXL2087; +IPTG, whole cells, DW 1.4 g/l, 1 ml, pH 4.3) was 38 μmols of adipate produced/h, the “Activity Ub” value (E. coli TG1 pXL2087; +IPTG, whole cells, DW 1.4 g/l, 2 ml, pH 6.2) was 18 μmols of adipate produced/h and the “Activity Ub” value (E. coli TG1 pXL2087; +IPTG, whole cells, DW 1.4 g/l, 2 ml, pH 7.0) was 11 μmols of adipate produced/h. The “Activity Ub” value (E. coli TG1 pXL2087; no IPTG, sonicated cells, DW 1.0 g/l, 1 ml, pH 6.2) was 3 μmols of adipate produced/h, the “Activity Ub” value (E. coli TG1 pXL2087; no IPTG, sonicated cells, DW 1.0 g/l, 1 ml, pH 7.0) was 4 μmols of adipate produced/h and the “Activity Ua” value (E. coli TG1 pXL2087; no IPTG, whole cells, 1 ml) was 75 μmols of cyanovalerate produce. The “Activity Ub” value (E. coli TG1 pXL2087; no IPTG, whole cells, DW 1.2 g/l, 2 ml, pH 4.3) was 16 μmols of adipate produced/h, the “Activity Ub” value (E. coli TG1 pXL2087; no IPTG, whole cells, DW 1.2 g/l, 2 ml, pH 6.2) was 11 μmols of adipate produced/h and the “Activity Ub” value (E. coli TG1 pXL2087; no IPTG, whole cells, DW 1.2 g/l, 2 ml, pH 7.0) was 3.4 μmols of adipate produced/h. For the same compound, the “initial activity of the cells” value [5] was 1.5 μmol of adipate/h/mg of cells (dry weight), the “Activity Ub” value (E. coli TG1; pH 5.2) was 0 μmols of adipate produced/h and the “Activity Ub” value (E. coli TG1; pH 7.0) was 0 μmols of adipate produced/h. For the same compound, the “Activity Ua” value (P. putida G2081 pDSK519) was 0 μmols of cyanovalerate produce, the “SPECIFIC ACTIVITY” value (purified nitrilase [6]; Acetate pH 3.0) was 2,300 U/mg of protein and the “SPECIFIC ACTIVITY” value (purified nitrilase [6]; Acetate pH 4.0) was 2,900 U/mg of protein. The “SPECIFIC ACTIVITY” value (purified nitrilase [6]; Acetate pH 4.5) was 2,800 U/mg of protein, the “SPECIFIC ACTIVITY” value (purified nitrilase [6]; Acetate pH 5.0) was 2,700 U/mg of protein and the “SPECIFIC ACTIVITY” value (purified nitrilase [6]; Phosphate pH 6.0) was 2,900 U/mg of protein. For the same compound, the “SPECIFIC ACTIVITY” value (purified nitrilase [6]; Phosphate pH 7.0) was 2,700 U/mg of protein and the “SPECIFIC ACTIVITY” value (purified nitrilase [6]; Phosphate pH 8.0) was 2,800 U/mg of protein.
